Reference: patent publication US20240060999A1, “BLOOD COAGULATION INSPECTION METHOD” (FUJIMORI KOGYO CO., LTD, priority 2020, published 2024)

Tested on: whole blood
Experiment: ROTEM whole blood coagulation with rabbit brain-derived tissue thromboplastin (TP) + Ca 12 mM (CTI 20 μg/mL, PKSI-527 40 μM where stated)
Type: cell-based
[1] = Ex11, TP 16.6 μg/mL+Ca+CTI+PKSI-527, heparan sulfate 1 μg/mL, no rTM
[2] = Ex11, TP 16.6 μg/mL+Ca+CTI+PKSI-527, heparan sulfate 1 μg/mL, rTM 50 μM (title: 50 nM)
[3] = Ex11, TP 16.6 μg/mL+Ca+CTI+PKSI-527, heparan sulfate 3 μg/mL, no rTM
[4] = Ex11, TP 16.6 μg/mL+Ca+CTI+PKSI-527, heparan sulfate 3 μg/mL, rTM 50 μM (title: 50 nM)
[5] = Ex11, TP 16.6 μg/mL+Ca+CTI+PKSI-527, heparan sulfate 10 μg/mL, no rTM
[6] = Ex11, TP 16.6 μg/mL+Ca+CTI+PKSI-527, heparan sulfate 10 μg/mL, rTM 50 μM (title: 50 nM)
[7] = Ex11, TP 16.6 μg/mL+Ca+CTI+PKSI-527, heparan sulfate 15 μg/mL, no rTM
[8] = Ex11, TP 16.6 μg/mL+Ca+CTI+PKSI-527, heparan sulfate 15 μg/mL, rTM 50 μM (title: 50 nM)
[9] = Ex11, TP 16.6 μg/mL+Ca+CTI+PKSI-527, heparan sulfate 20 μg/mL, no rTM
[10] = Ex11, TP 16.6 μg/mL+Ca+CTI+PKSI-527, heparan sulfate 20 μg/mL, rTM 50 μM (title: 50 nM)
[11] = Ex11, TP 16.6 μg/mL+Ca+CTI+PKSI-527, heparan sulfate 30 μg/mL, no rTM
[12] = Ex11, TP 16.6 μg/mL+Ca+CTI+PKSI-527, heparan sulfate 30 μg/mL, rTM 50 μM (title: 50 nM)
[13] = Ex12, TP 16.6 μg/mL+Ca+CTI+PKSI-527, heparan sulfate 5 μg/mL, no rTM
[14] = Ex12, TP 16.6 μg/mL+Ca+CTI+PKSI-527, heparan sulfate 5 μg/mL, rTM 100 μM (title: 100 nM)
[15] = Ex13, TP 0.033 μg/mL+Ca+CTI+PKSI-527, heparan sulfate 0.5 μg/mL, no rTM
[16] = Ex13, TP 0.033 μg/mL+Ca+CTI+PKSI-527, heparan sulfate 0.5 μg/mL, rTM 9 μM (title: 9 nM)
[17] = Ex14, TP 0.033 μg/mL+Ca+CTI+PKSI-527, heparan sulfate 0.1 μg/mL, no rTM
[18] = Ex14, TP 0.033 μg/mL+Ca+CTI+PKSI-527, heparan sulfate 0.1 μg/mL, rTM 10 nM
[19] = Ex14, TP 0.033 μg/mL+Ca+CTI+PKSI-527, heparan sulfate 0.2 μg/mL, no rTM
[20] = Ex14, TP 0.033 μg/mL+Ca+CTI+PKSI-527, heparan sulfate 0.2 μg/mL, rTM 10 nM
[21] = Ex14, TP 0.033 μg/mL+Ca+CTI+PKSI-527, heparan sulfate 0.3 μg/mL, no rTM
[22] = Ex14, TP 0.033 μg/mL+Ca+CTI+PKSI-527, heparan sulfate 0.3 μg/mL, rTM 10 nM
[23] = Ex14, TP 0.033 μg/mL+Ca+CTI+PKSI-527, heparan sulfate 0.4 μg/mL, no rTM
[24] = Ex14, TP 0.033 μg/mL+Ca+CTI+PKSI-527, heparan sulfate 0.4 μg/mL, rTM 10 nM
[25] = Ex14, TP 0.033 μg/mL+Ca+CTI+PKSI-527, heparan sulfate 0.5 μg/mL, no rTM
[26] = Ex14, TP 0.033 μg/mL+Ca+CTI+PKSI-527, heparan sulfate 0.5 μg/mL, rTM 10 nM
[27] = Ex15, TP 0.033 μg/mL+Ca+CTI+PKSI-527, heparan sulfate 0.1 μg/mL, no rTM
[28] = Ex15, TP 0.033 μg/mL+Ca+CTI+PKSI-527, heparan sulfate 0.1 μg/mL, rTM 5 nM
[29] = Ex15, TP 0.033 μg/mL+Ca+CTI+PKSI-527, heparan sulfate 0.2 μg/mL, no rTM

Heparan sulfate
clotting time (CT) (Ex3/Ex9, TP 0.9 μg/mL+Startem, heparan sulfate 1 μg/mL, rTM 20 nM): 319 s
clotting time (CT) (Ex4, TP 0.9 μg/mL+Ca+CTI+PKSI-527, heparan sulfate 1 μg/mL, no rTM): 162 s
clotting time (CT) (Ex9, TP 0.9 μg/mL+Startem, heparan sulfate 1 μg/mL, no rTM): 154 s
clotting time (CT) (Ex10, TP 0.45 μg/mL+Startem, heparan sulfate 1 μg/mL, no rTM): 251 s
CFT (clot formation time) [1]: 93 s
CT (clotting time) [1]: 58 s
CFT (clot formation time) [2]: 72 s
CT (clotting time) [2]: 55 s
CFT (clot formation time) [3]: 93 s
CT (clotting time) [3]: 62 s
CFT (clot formation time) [4]: 73 s
CT (clotting time) [4]: 62 s
CFT (clot formation time) [5]: 55 s
CT (clotting time) [5]: 94 s
CFT (clot formation time) [6]: 95 s
CT (clotting time) [6]: 143 s
CFT (clot formation time) [7]: 66 s
CT (clotting time) [7]: 120 s
CFT (clot formation time) [8]: 255 s
CT (clotting time) [8]: 255 s
CFT (clot formation time) [9]: 61 s
CT (clotting time) [9]: 144 s
CFT (clot formation time) [10]: No CFT
CT (clotting time) [10]: No CT
CFT (clot formation time) [11]: 69 s
CT (clotting time) [11]: 193 s
CFT (clot formation time) [12]: No CFT
CT (clotting time) [12]: No CT
blood clotting time (Ex11, TP 16.6 μg/mL+Ca+CTI+PKSI-527, heparan sulfate 20 or 30 μg/mL, rTM 50 nM): ≥ 1 h
CFT (clot formation time) [13]: 76 s
CT (clotting time) [13]: 65 s
CFT (clot formation time) [14]: 69 s
CT (clotting time) [14]: 96 s
CFT (clot formation time) [15]: 248 s
CT (clotting time) [15]: 837 s
CFT (clot formation time) [16]: 1484 s
CT (clotting time) [16]: 1355 s
CFT (clot formation time) [17]: 182 s
CT (clotting time) [17]: 572 s
CFT (clot formation time) [18]: 240 s
CT (clotting time) [18]: 797 s
CFT (clot formation time) [19]: 224 s
CT (clotting time) [19]: 686 s
CFT (clot formation time) [20]: 215 s
CT (clotting time) [20]: 829 s
CFT (clot formation time) [21]: 171 s
CT (clotting time) [21]: 688 s
CFT (clot formation time) [22]: 290 s
CT (clotting time) [22]: 802 s
CFT (clot formation time) [23]: 206 s
CT (clotting time) [23]: 762 s
CFT (clot formation time) [24]: 733 s
CT (clotting time) [24]: 1360 s
CFT (clot formation time) [25]: 248 s
CT (clotting time) [25]: 837 s
CFT (clot formation time) [26]: 660 s
CT (clotting time) [26]: 1266 s
CFT (clot formation time) [27]: 182 s
CT (clotting time) [27]: 572 s
CFT (clot formation time) [28]: 230 s
CT (clotting time) [28]: 711 s
CFT (clot formation time) [29]: 224 s
CT (clotting time) [29]: 686 s
CFT (clot formation time) (Ex15, TP 0.033 μg/mL+Ca+CTI+PKSI-527, heparan sulfate 0.2 μg/mL, rTM 5 nM): 209 s
